Patent USRE44017E1, “N-acetyl aldosamines, N-acetylamino acids and related N-acetyl compounds and their topical use” (priority 1999, dated 2013)
Several values for one entry are separate records, joined by “and”; a condition that tells them apart may be missing. Identical values can stand only once.

Tests used:
forearm skin = experiment: Skin thickness of treated forearm measured by micrometer calipers; assay type: in vivo, human; conditions: for increase in skin thickness: topically twice daily, treated forearm, no change in untreated forearm; for appearance of treated forearm: twice daily, untreated forearm still loose, thin and wrinkled
Procedure: In one of the studies related to skin changes associated with aging, skin thickness was measured by micrometer calipers as follows: The skin was grasped with a 2×6 cm metal hinge, the internal faces of the hinge were coated with emery cloth to prevent slippage, and manually squeezed to threshold subject discomfort. Combined thickness of two whole-skin layers including thickness of the two hinge leaves was measured with micrometer calipers. Thickness of the two hinge leaves was subtracted to determine the actual thickness of two whole-skin layers. Triplicate measurements on treated site were done and an average number was used for calculation of the skin thickness.

itch / pruritus = experiment: Topical application to itchy skin or scalp lesions of single subjects; assay type: in vivo, human; conditions: person
Procedure: A subject, having an itchy lesion of lichen simplex chronicus on their right lower leg topically applied the above cream to the lesion.
A typical composition suitable for topical use on hair, scalp, nail and skin comprising for example N-acetylamino acid may be formulated as follows. N-Acetyl-DL-proline 2 g was dissolved in 98 ml solution prepared from water 40 ml, ethanol 40 ml and propylene glycol 20 ml. The composition with pH 2.7 contained 2% N-acetyl-DL-proline. A subject, having itchy scalp topically applied the above composition to itchy area of scalp.
N-Acetyl-L-lysine 2 g was dissolved in a 98 ml solution prepared from water 40 ml, ethanol 40 ml and propylene glycol 20 ml. The composition with pH 6.5 contained 2% N-acetyl-L-lysine. A subject, having an oily and pruritic scalp topically applied the above composition to the affected area of the scalp, and the area was dried with warm air to remove excess solvents.
The subject topically applied N-acetyl-DL-proline 5% in oil-in-water cream to the itchy lesions.
A subject with chronic nummular eczema and pruritic dry skin topically applied N-acetyl-DL-proline 5% in solution to itchy skin areas of eczema and dry skin lesions.
A subject, having axillary itch due to use of a conventional antiperspirant topically applied N-acetyl-DL-proline 5% in solution to itchy underarm skin areas.
The subject topically applied N-acetyl-L-glutamine 5% in a solution prepared from water 4 parts, ethanol 4 parts and propylene glycol 2 parts by volume.
The subject topically applied N-acetyl-α-D-glucosamine 5% in a solution prepared from water 4 parts, ethanol 4 parts and propylene glycol 2 parts by volume.

[1] = test system: forearm skin (epidermis, papillary dermis); experiment: Biological effects of topically applied N-acetyl compound on skin: test chambers on forearm, punch biopsy, histochemical staining; assay type: in vivo, human; conditions: 2% solution in water/propylene glycol, occlusive test chambers renewed twice weekly, five weeks
Procedure: In order to determine biological effects of a topically applied N-acetyl compound of the instant invention, seven women and one person of ages ranging from 58 to 81 years participated in this study. Topical formulation for the study was N-acetyl-L-cysteine 2% in a solution prepared from water 80 ml and propylene glycol 20 ml. Test sites were 1 cm square sites on extensor surface of forearm, 5 cm from the antecubital crease, a grid pattern formed by Hayes Test Chambers on Hayes adhesive strips. Each test chamber, 1 cm square, contained a square piece of filter paper which was fully moistened with 0.033 ml test solution. Test chambers were impressed on the skin to leave outlines which were marked with Sanford Sharpie permanent marker. Sites were re-marked at each successive application of test solutions. Vehicle control sites were on the opposite forearm. Filter paper of each chamber was saturated with 0.033 ml solution and chambers were fixed in place with the Hayes adhesive tape that held the test and vehicle chambers. […] Punch biopsy specimens, 3 mm or 4 mm in diameter, were secured at the end of the study, and specimens were processed and analyzed. […] Epidermal thickness was measured with Micro Image Analysis System, and the mean thickness was expressed as area of epidermis/horizontal length. The thickness of papillary dermis (upper dermis) was also measured.

[2] = ordinary storage conditions; results in a malodorous smell; cited from earlier work
[3] = test system: xerosis and dry skin on lower legs; experiment: Topical treatment of xerosis and dry skin; assay type: in vivo, human; conditions: 5% cream, twice daily, one week, subject
Source text: A subject who had xerosis and dry skin on lower legs topically applied twice daily 5% N-acetyl-glucosamine cream for one week. After a few days of topical treatment, the skin became less rough and scaly, and felt smooth.

[4] = test system: adolescent acne with multiple papules and pustules on face; experiment: Topical treatment of acne; assay type: in vivo, human; conditions: 5% solution, twice daily, after a few days, subject
Source text: A subject who had adolescent acne with multiple papules and pustules on their face applied topically twice daily 5% N-acetyl-glucosamine solution.

[5] = test system: photodamaged / photoaged skin; conditions: cited from earlier work
[6] = 10% cream, four weeks, one subject per value
[7] = 5% in solution of water 4, ethanol 4, propylene glycol 2 parts, chronic Grover's Disease
[8] = 2% solution, pH 6.5, oily and pruritic scalp
[9] = 5% cream, three weeks, one subject per value
[10] = 10% cream, three weeks, one subject per value
[11] = 2% solution (water/ethanol/propylene glycol), pH 2.7, itchy scalp
[12] = 5% in oil-in-water cream, chronic Grover's Disease
[13] = 5% in solution, axillary itch due to antiperspirant
[14] = 5% in solution, chronic nummular eczema and pruritic dry skin
[15] = 5% in solution, acute urticaria
[16] = 0.1% cream, topical application for 8 to 12 months (Weiss et al., JAAD 1988)

CC(=O)N[C@@H](CCCNC(=N)N)C(=O)O [N-acetyl-L-arginine]
increase in skin thickness (forearm skin; [6]): 32% and 22% | appearance of treated forearm (forearm skin; 10% cream, four weeks): more firm, smooth, plump and minimally wrinkled when lifted

CC(=O)N[C@@H](CCC(N)=O)C(=O)O [N-acetyl-L-glutamine]
severe itch a few minutes after topical application (itch / pruritus; [7]): disappeared completely | time lesions remained free of itch (itch / pruritus; [7]): 24 h

CC(=O)N[C@@H](CCCCN)C(=O)O [N-acetyl-L-lysine]
scalp itch a few minutes after topical application (itch / pruritus; [8]): disappeared completely | time scalp remained free of itch (itch / pruritus; [8]): 12 h

CC(=O)N[C@@H](CS)C(=O)O [N-acetyl-L-cysteine]
increase in skin thickness (forearm skin; [9]): 14% | appearance of treated forearm (forearm skin; 5% cream, three weeks): more firm, smooth, plump and minimally wrinkled when lifted | average increase in thickness of epidermis over the control ([1]; 8 subjects aged 58 to 81, vehicle control on opposite forearm): 96% | increase in production of hyaluronic acid in papillary dermis over the control ([1]; all test sites): 47-227% | stability on storage [2]: degrade under ordinary storage conditions

CC(=O)NC1CCSC1=O (racemic) [N-acetyl-DL-homocysteine thiolactone]
increase in skin thickness (forearm skin; [9]): 89% and 21% | appearance of treated forearm (forearm skin; 5% cream, three weeks): more firm, smooth, plump and minimally wrinkled when lifted

CC(=O)NC(Cc1c[nH]c2ccccc12)C(=O)O (racemic) [N-acetyl-DL-tryptophan]
increase in skin thickness (forearm skin; 10% cream, five weeks, one subject): 12% | increase in skin thickness (forearm skin; [10]): 11% and 21% | appearance of treated forearm (forearm skin; 10% cream, five weeks): more firm, smooth, plump and minimally wrinkled when lifted | appearance of treated forearm (forearm skin; 10% cream, three weeks): more firm, smooth, plump and minimally wrinkled when lifted

CCOC(=O)[C@H](Cc1ccc(O)cc1)NC(C)=O [N-acetyl-L-tyrosine ethyl ester]
increase in skin thickness (forearm skin; [6]): 11% and 34% | appearance of treated forearm (forearm skin; 10% cream, four weeks): more firm, smooth, plump and minimally wrinkled when lifted

CC(=O)N[C@@H]1[C@@H](O)[C@H](O)[C@@H](CO)O[C@@H]1O [N-acetyl-glucosamine, N-Acetyl-α-D-glucosamine]
increase in skin thickness (forearm skin; [10]): 37% | appearance of treated forearm (forearm skin; 10% cream, three weeks): more firm, smooth, plump and minimally wrinkled when lifted | severe itch a few minutes after topical application (itch / pruritus; [7]): disappeared completely | time lesions remained free of itch (itch / pruritus; [7]): 24 h | effect on xerosis and dry skin [3]: returned to normal-looking skin | effect on acne lesions [4]: most lesions became less inflamed and gradually eradicated

COC(=O)[C@H](CS)NC(C)=O [N-acetyl-L-cysteine methyl ester]
increase in skin thickness (forearm skin; [9]): 13% and 87% | appearance of treated forearm (forearm skin; 5% cream, three weeks): more firm, smooth, plump and minimally wrinkled when lifted | increase in skin thickness (forearm skin; [10]): 26% | appearance of treated forearm (forearm skin; 10% cream, three weeks): more firm, smooth, plump and minimally wrinkled when lifted

CC(=O)N1CCCC1C(=O)O (racemic) [N-acetyl-DL-proline]
scalp itch a few minutes after topical application (itch / pruritus; [11]): disappeared completely | time scalp remained free of itch (itch / pruritus; [11]): 24 h | severe itch a few minutes after topical application (itch / pruritus; [12]): disappeared completely | time lesions remained free of itch (itch / pruritus; [12]): 12 h | itch within a few minutes after topical application (itch / pruritus; [13]): disappeared completely | time skin remained free of itch (itch / pruritus; [13]): five | itch a few minutes after topical application (itch / pruritus; [14]): disappeared completely | time lesions remained free of itch (itch / pruritus; [14]): 48 h

CC(=O)N[C@H]1C(O)O[C@H](CO)[C@H](O)[C@@H]1O (stereo partly drawn) [N-acetyl-D-galactosamine]
effect on urticarial lesions (itch / pruritus; [15]): concomitant disappearance of urticarial lesions | severe itch a few minutes after topical application (itch / pruritus; [15]): disappeared completely | time skin remained free of itch (itch / pruritus; [15]): 24 h

CC1=C(/C=C/C(C)=C/C=C/C(C)=C/C(=O)O)C(C)(C)CCC1 [tretinoin]
effect on photodamaged skin ([5]; 0.05% in a cream, daily topical application (Kligman et al. 1986)): improve photodamaged skin | effect on aging skin [5, 16]: improve clinical signs of aging skin | side effects [5, 16]: burning sensation in the eyes and mild skin irritations | patients encountering dermatitis (side-effect) ([5]; 0.1%, daily topical application, 16 weeks (Weiss et al., JAMA 1988)): 92% | effect on photoaged skin ([5]; 0.1%, daily topical application, 16 weeks, compared to vehicle alone (Weiss et al., JAMA 1988)): improve photoaged skin
